The source of these data is patent US8003659B2, “Macrocyclic serine protease inhibitors” (Indenix Pharmaceuticals, Inc., priority 2008, dated 2011).

A word on the CC50: it is the concentration at which the toxic effect on the cells reaches its halfway point. One may read the EC50 as the concentration giving half of the maximal effect.

For series [1] the following is noted: from C=CCCCCN(C)C(=O)[C@@H]1C[C@H](Oc2cc(-c3nc(C(C)C)cs3)nc3c(Cl)c(OC)ccc23)CN1C(=O)N[C@]1(C(=O)NS(=O)(=O)C2CC2)C[C@H]1C=C; rcm bond; 14-membered ring; Zhan 1B (2%); DCE; 5.0 mM; 75.0 °C; 0.75 h.
A short description of series [2]: Cytotoxicity evaluation (Cell Titer 96 AQueous One Solution Cell Proliferation Assay). Conditions: human; GS4.1 cells, cellular viability. The format is cell-based. As to the method: (§1) For cytotoxicity evaluation, GS4.1 cells were treated with compounds as described above and cellular viability was monitored using the Cell Titer 96 AQueous One Solution Cell Proliferation Assay (Promega). CC50 values were determined from the % cytotoxicity versus concentration data with Tecan Magellan software as described above.

Series [3] can be described thus: Cytotoxicity (CC50) in the genotype 1b replicon assay. As to conditions: human, GS4.1 cells; genotype 1b replicon assay as described in Example 32. The format is cell-based. How it is done:
as §1
(§2) Compounds were tested in a genotype 1b replicon assay as described in Example 32 and the results are summarized in Table 6, wherein A represents a value smaller than 1 μM, and B represents a value between 1 μM to 10 μM, C represents a value between 10 μM to 75 μM and D represents a value greater than 75 μM.
A general note: In antiviral work, replicon cells carry a viral genome segment that copies itself.

A further series has as its system genotype 1b replicon. Nature of the series: Antiviral activity in a genotype 1b replicon assay. The format is cell-based, HCV. Conditions: Hepatitis C virus; genotype 1b replicon assay as described in Example 32; read-out: EC50. How it is done: General procedure: Huh-7 cells containing HCV Con1 subgenomic replicon (GS4.1 cells) were grown in Dulbecco's Modified Eagle Medium (DMEM) supplemented with 10% fetal bovine serum (FBS), 2 mM L-glutamine, 110 mg/L sodium pyruvate, 1× non-essential amino acids, 100 U/mL penicillin-streptomycin, and 0.5 mg/mL G418 (Invitrogen). For dose-response testing, the cells were seeded in 96-well plates at 7.5×10^3 cells/well in a volume of 50 μL, and incubated at 37° C./5% CO2. Three hours after plating, 50 μL of ten 2-fold serial dilutions of compounds (highest concentration, 75 μM) were added, and cell cultures were incubated at 37° C./5% CO2 in the presence of 0.5% DMSO. Alternatively, compounds were tested at a single concentration of 15 μM. In all cases, Huh-7 cells lacking the HCV replicon served as negative control. The cells were incubated in the presence of compounds for 72 hr after which they were monitored for expression of the NS4A protein by enzyme-linked immunosorbent assay (ELISA). For this, the plates were then fixed for 1 min with acetone/methanol (1:1, v/v), washed twice with phosphate-buffered saline (PBS), 0.1% Tween 20, blocked for 1 hr at room temperature with TNE buffer containing 10% FBS and then incubated for 2 hr at 37° C. with the anti-NS4A mouse monoclonal antibody A-236 (ViroGen) diluted in the same buffer. After washing three times with PBS, 0.1% Tween 20, the cells were incubated 1 hr at 37° C. with anti-mouse immunoglobulin G-peroxidase conjugate in TNE, 10% FBS. After washing as described above, the reaction was developed with O-phenylenediamine (Zymed). The reaction was stopped after 30 min with 2 NH2SO4, and absorbance was read at 492 nm using Sunrise Tecan spectrophotometer. EC50 values were determined from the % inhibition versus concentration data using a sigmoidal non-linear regression analysis based on four parameters with Tecan Magellan software. When screening at a single concentration, the results were expressed as % inhibition at 15 μM.
as §2

The subject of series [4] is Huh-7 cells containing HCV Con1 subgenomic replicon (GS4.1 cells). The series can be described thus: HCV Replicon Assay (NS4A ELISA). The format is cell-based. Conditions: Hepatitis C virus, Huh-7, 72 hr, NS4A protein by ELISA. A digest of the protocol: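 GS4.1 cells (Huh-7 with HCV Con1 subgenomic replicon) given ten 2-fold compound dilutions (top 75 μM) or a single 15 μM dose in 0.5% DMSO for 72 h at 37 °C. NS4A measured by cell ELISA (A492); EC50 from four-parameter sigmoidal fit, single-dose results as % inhibition at 15 μM.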

Series [5] deals with HCV genotype 2a infectious virus. Nature of the series: HCV genotype 2a infectious virus assay. The class given is cell-based, HCV (strain JFH-1; genotype 2a). As to conditions: Hepatitis C virus. As to the method: Compounds were tested in a HCV genotype 2a infectious virus assay and the results are summarized in Table 7, wherein A represents a value smaller than 1 μM, and B represents a value between 1 μM to 10 μM, C represents a value between 10 μM to 75 μM and D represents a value greater than 75 μM.
The HCV in vitro infection core ELISA assay measures the ability of a test compound to inhibit replication of an infectious HCV (strain JFH-1; genotype 2a) in cell culture. […] We have developed this model for determining the efficacy of antiviral compounds against an infectious virus in vitro using HCV producing cells (HPC), a proprietary Huh-7-derived cell sublineage capable of propagating the JFH-1 HCV virus. The readout of the assay is quantification of HCV core protein by ELISA 5 days post infection with JFH-1 virus and treatment with a test compound.
Ninety-six-well Corning Costar plates were seeded with HPC cells at a density of 3.0×10^3 cells per well in 50 μL of Huh-7 media. Compound stock solutions were made up freshly in Huh-7 media (DMEM (containing glucose, L-glutamine and sodium pyruvate), 10% FBS, 100 IU/mL penicillin, 100 μg/mL streptomycin, 2 mM GlutaMAX, 1% MEM non-essential amino acids) as 2× stock. Seven additional 3-fold drug dilutions were prepared from the 2× stocks in Huh-7 media. At least 4 hours after HPC cells were seeded, the media in the 96-well culture plates was aspirated and 50 μL of each drug dilution and 50 μL of JFH-1 HCV was added to each well.
At 16 hrs post treatment and infection, the virus inoculum was removed by aspiration. The cultures were treated at the same final concentrations of drug diluted to 1× in Huh-7 media to a final volume of 200 μL. Cells were incubated in the presence of drug for 4 additional days at 37° C./5% CO2.
Media was removed from the plates by aspiration. Cells were fixed with 250 μL 1:1 acetone:methanol for 90 seconds, washed once in PBS and then three times with 1×KPL wash solution. The assay plates were then blocked with 150 μL/well 10% FBS-TNE (50 mM Tris-HCl (pH 7.5; Sigma), 100 mM NaCl, 1 mM EDTA with 10% FBS) for 1 hr at room temperature. Cells were washed three times with 1×KPL wash solution and incubated with 100 μL/well anti-hepatitis C core mAb (1 mg/mL stock diluted 1:500 in 10% FBS-TNE) for 2 hours at 37° C. Cells were washed three times with 1×KPL wash solution and incubated with 100 μL/well HRP-goat anti-mouse antibody (diluted 1:2,500 in 10% FBS-TNE) for 1 hr at 37° C.
OPD solution was prepared using 1 OPD tablet+12 mL citrate/phosphate buffer (16 mM citric acid, 27 mM Na2HPO4) plus 5 μL 30% H2O2 per plate. Cells were washed three times with 1×KPL wash solution and developed with 100 μL/well OPD solution for 30 minutes in the dark at room temperature. The reaction was stopped with 100 μL/well of 2NH2SO4, and absorbance measured at A490 nm in a Victor^3 V 1420 multilabel counter (Perkin Elmer). The EC50 values for each compound were calculated from dose response curves from the resulting best-fit equations determined by Microsoft Excel and XLfit 4.1 software. The negative control for inhibition of virus replication was untreated HPC cells infected with the JFH-1 HCV virus strain. The negative ELISA control was untreated, uninfected HPC cells. The positive ELISA control was untreated HPC cells infected the JFH-1 HCV virus strain.

A value given as a limit tells only on which side of the number the result lay.

Consider `COc1ccc2c(O[C@H]3C[C@H]4C(=O)N(C)CCCC/C=C\[C@@H]5C[C@@]5(C(=O)NS(=O)(=O)C5CC5)NC(=O)N4C3)cc(-c3nc(C(C)C)cs3)nc2c1Cl` [Compound 62d, (Z)-(4R,6S,15S,17S)-[17-[8-chloro-7-methoxy-2-(4-isopropylthiazol-2-yl)quinolin-4-yloxy]-13-N-methyl-2,14-dioxo-1,3,13-triazatricyclo[13.3.0.0]octadec-7-en-4-yl]carbonyl(cyclopropyl)sulfonamide], for which the ring closure, isolated yield in series [1] was found to be 63%. In addition, the figures for the CC50 in series [2] and in series [3] were over 75 µM and 10 to 75 µM, respectively. Besides, the EC50 (in the series with genotype 1b replicon; in series [4]; in series [5]) was under 1 µM each time.
